Source: publication PMC10508484, “Development and application of a PBPK modeling strategy to support antimalarial drug development” (CPT: Pharmacometrics & Systems Pharmacology, 2023)
Several values for one entry are separate records, joined by “and”; a condition that tells them apart may be missing. Equal values may be shown once. Read-outs that look alike come from different tables or passages of the source.

Legend:
[1] = system: Caco-2 cells; settings: cited from earlier work
[2] = PBPK input, cited from earlier work
[3] = cited from earlier work; for Log D pH 7.4: lumefantrine: ACD labs value, ref Charman et al., 2020 1
[4] = Hepatic / HLM intrinsic clearance, enzyme not defined; settings: human
[5] = cited from earlier work; for CL renal: PBPK input, ref amodiaquine, DEAQ Winstanley et al., atovaquone Rolan et al., 1997 14, azithromycin Lalak et al., 1993 23, carboxyprimaquine Mihaly et al., 1987 29, DHA EMA Website, 44, mefloquine Schwartz et al., 1982 57, primaquine White, 1985 62, pyrimeth
[6] = In vitro flags for victim and perpetrator properties conferring DDI liability; format: in vitro ADME, human; settings: in vitro flag, mainly based on in vitro determinations
[7] = cited from earlier work
[8] = cited from earlier work; remark: listed apart in the source
[9] = PBPK simulation of drug-drug interactions (Simcyp V19); design: species or system human; settings: ratio of simulated to clinically observed AUC ratio; DDI of the respective line of Table S3
Excerpt: Here, we provide three example applications where the available PBPK models were used to address questions relating to DDI assessment. […] Additional simulation methods are provided in Appendix S1.
All simulations, including the ones performed for the applications, were run using Version 19 of the Simcyp population-based PBPK simulator (Simcyp (Certara), Sheffield, UK) and unless stated otherwise, input parameters for all drugs are as specified (Supplementary Information Table S1). All simulations were run using ten virtual trials that were matched as closely as possible to the clinical study volunteers in terms of the number of subjects, their age, the proportion of males/females and according to the same study design.

[10] = ref Charman et al., 2020 1; cited from earlier work
[11] = 1987 9, 1985 26, chloroquine Walker et al., doxycycline Raghuram et al., 1982 48, Nguyen et al., 1989 49, proguanil Jeppesen et al., 1997 34
[12] = midazolam 7.5 mg QD + piperaquine 960 mg QD, ref Eurartesim - EMA Website, 12
[13] = midazolam 15 mg SD (Day 3) + azithromycin 500 mg QD (3 Days), ref Yeates et al., 1996 6
[14] = midazolam 15 mg SD (Day 3) + azithromycin 500 mg QD (3 Days), ref Zimmermann et al., 1996 7
[15] = midazolam 15 mg SD (Day 5) + azithromycin 500 mg QD (Day 1), 250 mg (Days 2-5), ref Backman et al., 1995 5

## COc1ncnc(NS(=O)(=O)c2ccc(N)cc2)c1OC [Sulfadoxine, sulfadoxine]
[1]; calibrated against propranolol, plasma as medium for atovaquone and piperaquine, ref Charman et al., 2020 1
  Caco-2 (Papp A-B): 15 10-6 cm/s
[2]; ref Charman et al., 2020 1
  fu: 0.036
[3]
  Log D pH 7.4: -0.78
[4]
  fm additional / undefined metabolism: 10%
[5]; [11]
  CL renal: 0.035 L/h
[5]; clinically observed oral (in vivo) clearance, pyronaridine: blood, ref amodiaquine Winstanley et al., 1987 9, DEAQ Akande et al., 2015 8, Scarsi et al., 2014 35, Tarning et al., 2012 36, Orrell et al., 2008 37, DHA Na-Bangchang et al., 2004 42, lumefantrine Lefevre et al., 2002 52, Hoglund et al., 2015 53, mefloquine Charles et al., 2007 56, proguanil Jeppesen et al., 1997 34, pyronaridine Jittama
  CL PO: 0.039 L/h
[5]; in vivo
  fe (fraction excreted unchanged in urine): 90%
[6]
  Risk as a perpetrator: None identified
  Risk as a victim: Renally cleared
[7]; 500 mg SD, Caucasian, 0-inf, ref Weidekamm et al., 1982 35
  AUC Obs: 14168 µg·h/mL
[7]; 500 mg SD, Caucasian, ref Weidekamm et al., 1982 35
  Cmax Obs: 63200 ng/mL
[7]; 500 mg SD, South-East Asian, 0-inf, ref Sarikabhuti et al., 1988 44
  AUC Obs: 26689 µg·h/mL
[7]; 500 mg SD, South-East Asian, ref Sarikabhuti et al., 1988 44
  Cmax Obs: 77000 ng/mL
[7]; 500 mg weekly (20 weeks), 3360-3528 h, ref Schwartz et al., 1987 32
  AUC Obs: 12465 µg·h/mL
[7]; 500 mg weekly (20 weeks), ref Schwartz et al., 1987 32
  Cmax Obs: 121000 ng/mL
[7]; 1500 mg SD, 0-inf, ref Karunajeewa et al., 2009 43
  AUC Obs: 33284 µg·h/mL
[7]; 1500 mg SD, ref Karunajeewa et al., 2009 43
  Cmax Obs: 142000 ng/mL

## Cc1ncc2n1-c1ccc(Cl)cc1C(c1ccccc1F)=NC2 [Midazolam, midazolam]
[8]; [12]
  AUC ratio Obs: ≤ 2 fold
  Cmax ratio Obs: ≤ 2 fold
[8]; [13]
  AUC ratio Obs: 1.19
  Cmax ratio Obs: 1.52
[8]; [14]
  AUC ratio Obs: 1.27
  Cmax ratio Obs: 1.29
[8]; [15]
  AUC ratio Obs: 0.87
  Cmax ratio Obs: 0.66
[9]
  AUC ratios Sim/Obs: 0.91 and 0.83 and 1.22

## C[C@H]1c2cccc(O)c2C(=O)C2=C(O)[C@]3(O)C(=O)C(C(N)=O)=C(O)[C@@H](N(C)C)[C@@H]3[C@@H](O)[C@@H]21 [Doxycycline, doxycycline]
[2]; ref Charman et al., 2020 1
  fu: 0.23
[3]
  Log D pH 7.4: -0.2
[5]; [11]
  CL renal: 0.87 L/h
[5]; clinically observed, ref atovaquone Lavelle et al., 1994 17, chloroquine Walker et al., 1987 29, Gustafsson et al., 1983 30, doxycycline Raghuram et al., 1982 48, Nguyen et al., 1989 49, primaquine Mihaly et al., 1985 26, quinine White et al., 1983 77, Paintaud et al., 1993 78
  CL IV: 2.77 L/h
[6]
  Risk as a perpetrator: None identified
  Risk as a victim: Cleared by renal and biliary excretion
[7]; 100 mg SD, 0-inf, first line, ref Malmborg, 1984 25
  AUC Obs: 40.1 µg·h/mL
[7]; 100 mg SD, 0-inf, ref Grahnen et al., 1994 24
  AUC Obs: 29.9 µg·h/mL
[7]; 100 mg SD, 0-inf, second line, ref Malmborg, 1984 25
  AUC Obs: 37.4 µg·h/mL
[7]; 100 mg SD, ref Grahnen et al., 1994 24
  Cmax Obs: 1750 ng/mL
[7]; 100 mg q24h, 312-408 h, ref Binh et al., 2009 28
  AUC Obs: 37.3 µg·h/mL
[7]; 100 mg q24h, ref Binh et al., 2009 28
  Cmax Obs: 3260 ng/mL
[7]; 200 mg SD, 0-inf, ref Wojcicki et al., 1985 26
  AUC Obs: 40.9 µg·h/mL
[7]; 200 mg SD, ref Wojcicki et al., 1985 26
  Cmax Obs: 2610 ng/mL
[7]; 200 mg q24h, malaria-infected, 0-24 h, ref Newton et al., 2005 27
  AUC Obs: 32.0 µg·h/mL
[7]; 200 mg q24h, malaria-infected, 144-168 h, ref Newton et al., 2005 27
  AUC Obs: 48.6 µg·h/mL
[7]; 200 mg q24h, malaria-infected, window 0-24 h, ref Newton et al., 2005 27
  Cmax Obs: 3170 ng/mL
[7]; 200 mg q24h, malaria-infected, window 144-168 h, ref Newton et al., 2005 27
  Cmax Obs: 4440 ng/mL

## C=C[C@H]1C[N@@]2CC[C@H]1C[C@H]2[C@H](O)c1ccnc2ccc(OC)cc12 [Quinine, quinine]
[10]
  B:P: 0.67
[6]
  Risk as a perpetrator: CYP2D6 inhibitor
  Risk as a victim: Substrate of CYP3A4
[7]; in vivo, 550 mg
  AUC Obs: 50.89 µg·h/mL
  Cmax Obs: 2848 ng/mL

## CC[C@H]1OC(=O)[C@H](C)[C@@H](O[C@H]2C[C@@](C)(OC)[C@@H](O)[C@H](C)O2)[C@H](C)[C@@H](O[C@@H]2O[C@H](C)C[C@H](N(C)C)[C@H]2O)[C@](C)(O)C[C@@H](C)CN(C)[C@H](C)[C@@H](O)[C@]1(C)O [Azithromycin, azithromycin]
[2]; ref atovaquone Mepron Prescribing Information, 2008, Nixon et al., 2013 13, Rolan et al., 1997 14, azithromycin Foulds et al., 1990 20, chloroquine Ofori-Adjei et al., 1986 27, Walker et al., 1983 28, DHA Batty et al., 2004 41 (healthy volunteers), lumefantrine CDER submission 22-269, proguanil Wattanagoon et al., 1987 63, tafenoquine Dow et al., 2020 84
  fu: 0.69
[3]; ref PubChem/DrugBank
  Log P: 4.02
[5]; [11]
  CL renal: 8.67 L/h
[6]
  Risk as a perpetrator: CYP3A4 time‐dependent inhibitor
  Risk as a victim: Cleared by biliary excretion
[7]; in vivo, 500 mg
  AUC Obs: 1.77 µg·h/mL
  Cmax Obs: 410 ng/mL

## CC(C)NCC(O)COc1cccc2ccccc12 (stereo not shown) [Propranolol, propranolol]
[1]; Caco-2
  Papp A-B of calibrator: 72 10-6 cm/s

## COc1cc(NC(C)CCC(=O)O)c2ncccc2c1 (stereo not shown) [Carboxyprimaquine, carboxyprimaquine]
[7]; 15 mg QD (Day 14), 0-inf, ref Ward et al., 1985 14
  AUC Obs: 24.7 µg·h/mL
[7]; 15 mg QD (Day 14), ref Ward et al., 1985 14
  Cmax Obs: 1240 ng/mL
[7]; 15 mg SD, 0-24 h, ref Mihaly et al., 1985 12
  AUC Obs: 15.1 µg·h/mL
[7]; 15 mg SD, 0-inf, ref Ward et al., 1985 14
  AUC Obs: 14.2 µg·h/mL
[7]; 15 mg SD, ref Ward et al., 1985 14
  Cmax Obs: 736 ng/mL
[7]; 30 mg SD, 0-inf, ref Hanboonkunupakarn et al., 2014 13
  AUC Obs: 44 µg·h/mL
[7]; 30 mg SD, 0-inf, ref Jittamala et al., 2015 15
  AUC Obs: 47.2 µg·h/mL
[7]; 30 mg SD, ref Hanboonkunupakarn et al., 2014 13
  Cmax Obs: 959 ng/mL
[7]; 30 mg SD, ref Jittamala et al., 2015 15
  Cmax Obs: 1040 ng/mL
[7]; 45 mg SD, 0-24 h, ref Mihaly et al., 1985 12
  AUC Obs: 39.9 µg·h/mL
